Test results from the NIST ThermoML archive (doi:10.1021/je500211w).

Test: xn = mol fraction of the nth substance listed
Conditions: 101 kPa, Liquid, NMR spin-echo technique

OCC(F)(F)F [2,2,2-trifluoroethanol] + O
binary diffusion coefficient (283.2 K, x1 = 0.000511): 7.32e-10 m2/s
binary diffusion coefficient (283.2 K, x1 = 0.001034): 7.18e-10 m2/s
binary diffusion coefficient (283.2 K, x1 = 0.004989): 6.91e-10 m2/s
binary diffusion coefficient (283.2 K, x1 = 0.009331): 6.69e-10 m2/s
binary diffusion coefficient (283.2 K, x1 = 0.01008): 6.68e-10 m2/s
binary diffusion coefficient (283.2 K, x1 = 0.04965): 4.57e-10 m2/s
binary diffusion coefficient (288.2 K, x1 = 0.000511): 8.43e-10 m2/s
binary diffusion coefficient (288.2 K, x1 = 0.001034): 8.44e-10 m2/s
binary diffusion coefficient (288.2 K, x1 = 0.004989): 8.01e-10 m2/s
binary diffusion coefficient (288.2 K, x1 = 0.009331): 7.62e-10 m2/s
binary diffusion coefficient (288.2 K, x1 = 0.01008): 7.87e-10 m2/s
binary diffusion coefficient (288.2 K, x1 = 0.04965): 5.52e-10 m2/s
binary diffusion coefficient (293.2 K, x1 = 0.000511): 1.02e-09 m2/s
binary diffusion coefficient (293.2 K, x1 = 0.001034): 9.98e-10 m2/s
binary diffusion coefficient (293.2 K, x1 = 0.004989): 9.67e-10 m2/s
binary diffusion coefficient (293.2 K, x1 = 0.009331): 9.35e-10 m2/s
binary diffusion coefficient (293.2 K, x1 = 0.01008): 8.96e-10 m2/s
binary diffusion coefficient (293.2 K, x1 = 0.04965): 7.24e-10 m2/s
binary diffusion coefficient (298.2 K, x1 = 0.000511): 1.13e-09 m2/s
binary diffusion coefficient (298.2 K, x1 = 0.001034): 1.11e-09 m2/s
binary diffusion coefficient (298.2 K, x1 = 0.004989): 1.1e-09 m2/s
binary diffusion coefficient (298.2 K, x1 = 0.009331): 1.1e-09 m2/s
binary diffusion coefficient (298.2 K, x1 = 0.01008): 1.06e-09 m2/s
binary diffusion coefficient (298.2 K, x1 = 0.04965): 8.51e-10 m2/s
binary diffusion coefficient (303.2 K, x1 = 0.000511): 1.28e-09 m2/s
binary diffusion coefficient (303.2 K, x1 = 0.001034): 1.27e-09 m2/s
binary diffusion coefficient (303.2 K, x1 = 0.004989): 1.23e-09 m2/s
binary diffusion coefficient (303.2 K, x1 = 0.009331): 1.2e-09 m2/s
binary diffusion coefficient (303.2 K, x1 = 0.01008): 1.23e-09 m2/s
binary diffusion coefficient (303.2 K, x1 = 0.04965): 9.71e-10 m2/s
binary diffusion coefficient (308.2 K, x1 = 0.000511): 1.44e-09 m2/s
binary diffusion coefficient (308.2 K, x1 = 0.001034): 1.46e-09 m2/s
binary diffusion coefficient (308.2 K, x1 = 0.004989): 1.41e-09 m2/s
binary diffusion coefficient (308.2 K, x1 = 0.009331): 1.36e-09 m2/s
binary diffusion coefficient (308.2 K, x1 = 0.01008): 1.37e-09 m2/s
binary diffusion coefficient (308.2 K, x1 = 0.04965): 1.1e-09 m2/s
binary diffusion coefficient (313.2 K, x1 = 0.000511): 1.71e-09 m2/s
binary diffusion coefficient (313.2 K, x1 = 0.001034): 1.71e-09 m2/s
binary diffusion coefficient (313.2 K, x1 = 0.004989): 1.66e-09 m2/s
binary diffusion coefficient (313.2 K, x1 = 0.009331): 1.57e-09 m2/s
binary diffusion coefficient (313.2 K, x1 = 0.01008): 1.57e-09 m2/s
binary diffusion coefficient (313.2 K, x1 = 0.04965): 1.28e-09 m2/s
